“And” between values parts separate entries of the source, which are not always exact repeats. Identical values can stand only once. “Also recorded” adds a separate entry of the source. Like-named read-outs stand apart in the source and are kept apart here.
What was measured:
Ba/F3 ALK-G1269A = assay: Growth of transfected Ba/F3 cells (CellTiter-Glo, 3 days); format: cell-based; details: Mus musculus, BaF3; ALK-G1269A; read-out: IC50
Description: (§1) Harvest cells during the logarithmic growth period and count cells using blood counting chamber. Adjust cell concentration with culture medium. Add 90µl cell suspensions to two 96-well plates to the final cell density as described before. Incubate the plate overnight in humidified incubator at 37℃ with 5% CO2. Dispense 10µl drug solution (10×) to each well (triplicate for each concentration), and the DMSO final concentration in culture medium is 0.1% [v/v]. Culture the plates for 3 days. On Day 3, Read luminescent using Multi Label Reader. The software of GraphPad Prism was used to calculate IC50. The graphical curves were fitted using a nonlinear regression model with a sigmoidal dose response.

Ba/F3 ALK-L1152P = assay: as above; format: cell-based; details: Mus musculus, BaF3; ALK-L1152P; read-out: IC50
Description: as §1

Ba/F3 ALK-F1174V = assay: as above; format: cell-based; details: Mus musculus, BaF3; ALK-F1174V; read-out: IC50
Description: as §1

Ba/F3 ALK-L1152R = assay: as above; format: cell-based; details: Mus musculus, BaF3; ALK-L1152R; read-out: IC50
Description: as §1

Ba/F3 ALK-G1202R = assay: as above; format: cell-based; details: Mus musculus, BaF3; ALK-G1202R; read-out: IC50
Description: as §1

Ba/F3 ALK-WT = assay: as above; format: cell-based; details: Mus musculus, BaF3; ALK-WT; read-out: IC50
Description: as §1

Ba/F3 ALK-F1174C = assay: as above; format: cell-based; details: Mus musculus, BaF3, ALK-F1174C, read-out: IC50
Description: as §1

[1] = tested on: advanced NSCLC patients with ALK or ROS1 rearrangement; assay: Phase 1 trial: safety (adverse events, DLT, MTD; NCI CTCAE 4.03); format: in vivo
Description: This FIH, single arm, multicenter, phase 1 study was conducted in advanced NSCLC patients with ALK or ROS1 rearrangement, composed of the dose-escalation and dose-expansion phases. The dose-escalation and dose-expansion phases were conducted at 4 and 38 centers in mainland China, respectively (Supplementary Table S1), and were done in compliance with the Declaration of Helsinki and International Council for Harmonisation guidelines for Good Clinical Practice. The study protocol and amendments were approved by the independent ethics committee at every participating site. Written informed consent was provided by all patients before being screened for enrolment.
ALK and ROS1 rearrangements were established by immunohistochemistry, reverse transcription-polymerase chain reaction (PCR), amplification refractory mutation system-PCR, fluorescence in situ hybridization, or next-generation sequencing. Patients must have at least one measurable lesion as defined by Response Evaluation Criteria in Solid Tumors (RECIST) version 1.1. Other key eligibility criteria included an age of 18–70 years, an Eastern Cooperative Oncology Group performance status of 0 or 1, a life expectancy of at least 12 weeks, and adequate organ function, including adequate function of bone marrow (absolute neutrophil count ≥1.5 × 10^9/L, platelets ≥100 × 10^9/L, hemoglobin ≥90 g/L) and liver function (total bilirubin ≤1.5× upper limit of normal [ULN], ALT and AST ≤2.5× ULN [≤5.0× ULN for liver metastasis patients]).
In the dose-escalation phase, a standard 3 + 3 design was used to determine the MTD.[29]
Three patients were assigned to each dose level.
Patients continued treatment until documented disease progression, unacceptable toxicity, withdrawal of consent, the start of a new anticancer treatment, death, loss of follow-up, or end of the study (whichever occurred first). Patients were permitted to continue treatment after progression if they were still experiencing clinical benefit, at the discretion of the investigator.
For grade ≥3 AEs (also including grade ≥2 cardiac dysfunction and renal dysfunction, etc.), dose interruption could occur.
Patients performed imaging evaluation at baseline, with computed tomography or magnetic resonance imaging of the chest, abdomen, pelvis, and brain. […] In the dose-expansion phase, tumor response was assessed every 6 weeks until 48 weeks and every 12 weeks thereafter until documented disease progression. If responses (CR or PR) were observed, repeat assessments were required to confirm the responses 4 weeks after the initial evaluation. Tumor responses were assessed by local investigators according to RECIST 1.1.
Safety parameters included TEAEs, SAEs, and TRAEs.

[2] = TEAE, Grade 1–2, total (n = 152)
[3] = TEAE, ≥Grade 3, total (n = 152)
[4] = TEAE, ≥Grade 3, dose: 30, 60, 90, 120, 180, 240, 300 mg
[5] = TRAE, ≥grade 3, dose: 30, 60, 90, 120, 180, 240, 300 mg

Question: For `COc1cc(N2CCC3(CCN(C)CC3)CC2)ccc1Nc1ncc(Cl)c(Nc2ccccc2P(C)(C)=O)n1` [WX-0593], which IC50 (Ba/F3 ALK-G1269A) is on record?
Answer: 36 nM

Question: What about the IC50 (Ba/F3 ALK-L1152P) of the same compound?
Answer: 1.5 nM

Question: And the IC50 (Ba/F3 ALK-F1174V)?
Answer: 22.3 nM

Question: And the IC50 (Ba/F3 ALK-L1152R)?
Answer: 4.6 nM

Question: What about the IC50 (Ba/F3 ALK-G1202R) of the same compound?
Answer: 96 nM

Question: And the IC50 (Ba/F3 ALK-WT)?
Answer: 21 nM

Question: And the IC50 (Ba/F3 ALK-F1174C; first listing (r10))?
Answer: 36 nM

Question: What about the IC50 (Ba/F3 ALK-F1174C; second listing (r15)) of the same compound?
Answer: 29.3 nM

Question: And the “Dizziness, patients n (%)” value [1]?
Answer: 0

Question: And the “ALT elevated, patients n (%)” value [1, 2]?
Answer: 39 (26%)

Question: And the “AST elevated, patients n (%)” value [1, 2]?
Answer: 41 (27%)

Question: And the “CPK elevated, patients n (%)” value [1, 2]?
Answer: 31 (20%)

Question: And the “Dizziness, patients n (%)” value [1, 2]?
Answer: 16 (11%)

Question: What about the “Headache, patients n (%)” value [1, 2] of the same compound?
Answer: 14 (9%)

Question: What about the “Hypertension, patients n (%)” value [1, 2] of the same compound?
Answer: 24 (16%)

Question: And the “Hypertriglyceridemia, patients n (%)” value [1, 2]?
Answer: 32 (21%)

Question: And the “Upper respiratory infection, patients n (%)” value [1, 2]?
Answer: 16 (11%)

Question: What about the “diarrhea, patients n (%)” value [1, 2] of the same compound?
Answer: 21 (14%)

Question: What about the “hypercholesterolemia, patients n (%)” value [1, 2] of the same compound?
Answer: 42 (28%)

Question: What about the “hyperlipidemia, patients n (%)” value [1, 2] of the same compound?
Answer: 21 (14%)

Question: And the “nausea, patients n (%)” value [1, 2]?
Answer: 48 (32%)

Question: What about the “rash, patients n (%)” value [1, 2] of the same compound?
Answer: 19 (13%)

Question: What about the “γ-GGT elevated, patients n (%)” value [1, 2] of the same compound?
Answer: 12 (8%)

Question: What about the “Headache, patients n (%)” value ([1]; TEAE, all grade, total (n = 152)) of the same compound?
Answer: 14 (9%)

Question: What about the “ALT elevated, patients n (%)” value [1, 3] of the same compound?
Answer: 6 (4%)

Question: What about the “AST elevated, patients n (%)” value [1, 3] of the same compound?
Answer: 6 (4%)

Question: And the “CPK elevated, patients n (%)” value [1, 3]?
Answer: 0

Question: And the “Headache, patients n (%)” value [1, 3]?
Answer: 0

Question: What about the “Hypertension, patients n (%)” value [1, 3] of the same compound?
Answer: 9 (6%)

Question: And the “Hypertriglyceridemia, patients n (%)” value [1, 3]?
Answer: 5 (3%)

Question: What about the “Upper respiratory infection, patients n (%)” value [1, 3] of the same compound?
Answer: 1 (1%)

Question: And the “diarrhea, patients n (%)” value [1, 3]?
Answer: 1 (1%)

Question: And the “hypercholesterolemia, patients n (%)” value [1, 3]?
Answer: 5 (3%)

Question: And the “hyperlipidemia, patients n (%)” value [1, 3]?
Answer: 1 (1%)

Question: What about the “nausea, patients n (%)” value [1, 3] of the same compound?
Answer: 0

Question: And the “rash, patients n (%)” value [1, 3]?
Answer: 1 (1%)

Question: What about the “vomiting, patients n (%)” value [1, 3] of the same compound?
Answer: 0

Question: And the “γ-GGT elevated, patients n (%)” value [1, 3]?
Answer: 5 (3%)

Question: And the “CPK elevated, patients n (%)” value [1, 4]?
Answer: 0

Question: And the “Dizziness, patients n (%)” value [1, 4]?
Answer: 0

Question: What about the “Headache, patients n (%)” value [1, 4] of the same compound?
Answer: 0

Question: What about the “nausea, patients n (%)” value [1, 4] of the same compound?
Answer: 0

Question: What about the “vomiting, patients n (%)” value [1, 4] of the same compound?
Answer: 0

Question: What about the “ALT elevated, patients n (%)” value ([1]; TRAE, grade 1-2, total (n=152)) of the same compound?
Answer: 38(25%)

Question: And the “AST elevated, patients n (%)” value ([1]; TRAE, grade 1-2, total (n=152))?
Answer: 41(27%)

Question: And the “CPK elevated, patients n (%)” value ([1]; TRAE, grade 1-2, total (n=152))?
Answer: 25(16%)

Question: And the “Hypertension, patients n (%)” value ([1]; TRAE, grade 1-2, total (n=152))?
Answer: 18(12%)

Question: And the “Hypertriglyceridemia, patients n (%)” value ([1]; TRAE, grade 1-2, total (n=152))?
Answer: 28(18%)

Question: What about the “diarrhea, patients n (%)” value ([1]; TRAE, grade 1-2, total (n=152)) of the same compound?
Answer: 21(14%)

Question: What about the “hypercholesterolemia, patients n (%)” value ([1]; TRAE, grade 1-2, total (n=152)) of the same compound?
Answer: 39(26%)

Question: What about the “hyperlipidemia, patients n (%)” value ([1]; TRAE, grade 1-2, total (n=152)) of the same compound?
Answer: 15(10%)

Question: What about the “nausea, patients n (%)” value ([1]; TRAE, grade 1-2, total (n=152)) of the same compound?
Answer: 43(28%)

Question: What about the “rash, patients n (%)” value ([1]; TRAE, grade 1-2, total (n=152)) of the same compound?
Answer: 15(10%)

Question: And the “vomiting, patients n (%)” value ([1]; TRAE, grade 1-2, total (n=152))?
Answer: 37(24%)

Question: What about the “γ-GGT elevated, patients n (%)” value ([1]; TRAE, grade 1-2, total (n=152)) of the same compound?
Answer: 10(7%)

Question: And the “CPK elevated, patients n (%)” value ([1]; TRAE, ≥grade 3, total (n=152))?
Answer: 0

Question: And the “diarrhea, patients n (%)” value ([1]; TRAE, ≥grade 3, total (n=152))?
Answer: 1(1%)

Question: What about the “hypercholesterolemia, patients n (%)” value ([1]; TRAE, ≥grade 3, total (n=152)) of the same compound?
Answer: 1(1%)

Question: What about the “hyperlipidemia, patients n (%)” value ([1]; TRAE, ≥grade 3, total (n=152)) of the same compound?
Answer: 0

Question: And the “nausea, patients n (%)” value ([1]; TRAE, ≥grade 3, total (n=152))?
Answer: 0

Question: And the “rash, patients n (%)” value ([1]; TRAE, ≥grade 3, total (n=152))?
Answer: 1(1%)

Question: And the “vomiting, patients n (%)” value ([1]; TRAE, ≥grade 3, total (n=152))?
Answer: 0

Question: What about the “CPK elevated, patients n (%)” value [1, 5] of the same compound?
Answer: 0

Question: What about the “hyperlipidemia, patients n (%)” value [1, 5] of the same compound?
Answer: 0

Question: And the “nausea, patients n (%)” value [1, 5]?
Answer: 0

Question: And the “vomiting, patients n (%)” value [1, 5]?
Answer: 0

Question: And the “maximum tolerated dose (MTD)” value ([1]; dose-escalation 30–300 mg)?
Answer: could not be identified; also recorded: not reached

Question: What about the “dose-limiting toxicities (DLTs)” value ([1]; dose-escalation, 300 mg, in 1 of 3 patients: grade 3 QT interval prolonged, grade 2 chronic heart failure) of the same compound?
Answer: Two

Question: What about the “AE led to dose interruption, patients n (%)” value ([1]; total (n=152)) of the same compound?
Answer: 30(20%)

Question: And the “AE led to dose interruption, treatment-related, patients n (%)” value ([1]; total (n=152))?
Answer: 30 (20%) and 27(18%)

Question: And the “AE led to dose reduction, treatment-related, patients n (%)” value ([1]; total (n=152))?
Answer: 4 (3%)

Question: What about the “AE led to treatment termination, patients n (%)” value ([1]; total (n=152)) of the same compound?
Answer: 11(7%)

Question: What about the “Adverse events, total, patients n (%)” value ([1]; total (n=152)) of the same compound?
Answer: 148 (97%)

Question: What about the “Death during treatment, not related with disease progression, patients n (%)” value ([1]; total (n=152)) of the same compound?
Answer: 6(4%)

Question: And the “Death during treatment, related with disease progression, patients n (%)” value ([1]; total (n=152))?
Answer: 1(1%)

Question: And the “Discontinuation due to adverse event, patients n (%)” value ([1]; total (n=152))?
Answer: 11(7%)

Question: And the “Discontinuation due to adverse event, treatment-related, patients n (%)” value ([1]; total (n=152))?
Answer: 8(5%)

Question: And the “Serious adverse event, patients n (%)” value ([1]; total (n=152))?
Answer: 25 (16%)

Question: And the “≥grade 3 adverse event, patients n (%)” value ([1]; total (n=152))?
Answer: 53 (35%)
